Patent US20100247533A1, “TREATMENT WITH A HUMANIZED ANTI-EGFR IgG1 ANTIBODY AND IRINOTECAN” (priority 2009, published 2010)

Legend:
[1] = tested on: A549 lung adenocarcinoma xenografts; assay: Animal survival study in vivo, A549 lung adenocarcinoma xenograft model; design: species or system SCID beige mice
Description: Partially fucosylated GlycArt-mAb was provided as stock solution (c=11.3 mg/ml), in a buffer containing histidine, trehalose and polysorbate 20. The antibody stock solution was appropriately diluted in PBS prior to injection.
The antibody concentration was adjusted by dilution of the reconstituted stock solution prior to injection.
Irinotecan/CPT-11 (Campto®) was purchased as clinical formulation (20 mg/ml) from Pfizer Pharma GmbH, Karlsruhe, Germany. The antibody concentration was adjusted by dilution of the reconstituted stock solution prior to injection.
A549 human Non Small Cell Lung Cancer (NSCLC) cells were obtained from ATCC. The tumor cell line was routinely cultured in RPMI medium (PAA Laboratories, Austria) supplemented with 10% fetal bovine serum (PAA Laboratories, Austria) and 2 mM L-glutamine, at 37° C. in a water-saturated atmosphere at 5% CO2.
Passage 3 of A549 cells was used for in vivo injection. 2×10^6 cells in PBS were injected intravenously (i.v.).
Female SCID beige mice; age 7-8 weeks at arrival (purchased from Charles River, Sulzfeld, Germany) were maintained under specific pathogen-free conditions with daily cycles of 12 h light/12 h darkness according to committed guidelines (GV-Solas; Felasa; TierschG). […]
The primary parameter was survival. The data was statistically analyzed by log rank test.

[2] = tested on: colorectal cancer; conditions: combined with 5-fluorouracil and leucovorin; first-line treatment for colorectal cancer; cited from earlier work

SMILES | p (log rank test), survival compared to vehicle control ([1]; antibodies 25 mg/kg i.p. every seven days, irinotecan 20 mg/kg i.p. four times, single agents or combinations) | animal survival compared to vehicle control ([1]; single agents, antibodies 25 mg/kg i.p. every seven days (day 7-98), irinotecan 20 mg/kg i.p. day 7, 10, 14, 17, A549 cells injected i.v.) | response rates [2]
CCc1c2c(nc3ccc(OC(=O)N4CCC(N5CCCCC5)CC4)cc13)-c1cc3c(c(=O)n1C2)COC(=O)[C@]3(O)CC [irinotecan] | 0.017 | significantly prolonged animal survival | 
O=C1[O][Pt]2([NH][C@@H]3CCCC[C@H]3[NH]2)[O]C1=O [oxaliplatin] |  |  | 25-40%
